These results are taken from patent publication US10556865B2, “Synergistic herbicidal composition containing certain pyridine or pyrimidine carboxylic acids and certain cereal and rice herbicides” (Dow AgroSciences, LLC, priority 2007, dated 2020).

Several values for one entry are separate records, joined by “and”; a condition that tells them apart may be missing. Equal values may be shown once.

What all share (assay type): in vivo
Assay [1] concerns Cyperus esculentus L. (CYPES). Nature of the assay: Postemergence herbicidal mixtures for weed control in direct seeded rice (greenhouse, visual % injury).
Assay [2] has as its system Scirpus species (SCPSS). Kind of assay: Herbicidal mixtures for weed control in transplanted paddy rice (in-water application, visual % injury). To be noted: SCPJU; 90 g/ha alone. How it is done: (§1) Weed seeds or nutlets of the desired test plant species were planted in puddled soil (mud) prepared by mixing a non-sterilized mineral soil (28 percent silt, 18 percent clay, and 54 percent sand, with a pH of about 7.3 to 7.8 and an organic matter content of about 1.0 percent) and water at a ratio of 100 kilograms (kg) of soil to 19 L of water. The prepared mud was dispensed in 250 mL aliquots into 480 mL non-perforated plastic pots with a surface area of 91.6 square centimeters leaving a headspace of 3 centimeters in each pot. Rice seeds were planted in Sun Gro MetroMix® 306 planting mixture, which typically has a pH of 6.0 to 6.8 and an organic matter content of about 30 percent, in plastic plug trays. Seedlings at the second or third leaf stage of growth were transplanted into 650 mL of mud contained in 960 mL non-perforated plastic pots with a surface area of 91.6 cm^2 4 days prior to herbicide application. The paddy was created by filling the 3 centimeter headspace of the pots with water. […] The plants were grown for 4-14 days in a greenhouse with an approximate 14 hr photoperiod which was maintained at about 29° C. during the day and 26° C. during the night. Nutrients were added as Osmocote (17:6:10, N:P:K+minor nutrients) at 2 g per cup. Water was added on a regular basis to maintain the paddy flood, and supplemental lighting was provided with overhead metal halide 1000-Watt lamps as necessary. The plants were employed for testing when they reached the second or third true leaf stage.
(§2) Treatments consisted of esters or salts of compound A, compound C, or compound D and various herbicidal components alone and in combination. For technical grade compounds, a weighed amount, determined by the highest rate to be tested, was placed in an individual 120 mL glass vial and was dissolved in 20 mL of acetone to obtain concentrated stock solutions. […] The concentrated stock solutions obtained were diluted with 20 mL of an aqueous mixture containing 2.5% Agri-dex crop oil concentrate (v/v). For formulated compounds, a measured amount, determined by the highest rate to be tested, was placed in an individual 120 mL glass vial and was dissolved in 20 mL of 2.5% (v/v) Agri-dex crop oil concentrate to obtain concentrated stock solutions. The concentrated stock solutions obtained were diluted with 20 mL of acetone. Applications were made by injecting an appropriate amount of the stock solution into the aqueous layer of the paddy. Control plants were treated in the same manner with the solvent blank. All treated plant material received the same concentration of acetone and crop oil concentrate.
(§3) Forms of compounds A, C, and D were applied on an acid equivalent basis. Other herbicidal components were applied on an active ingredient basis and included acetolactate synthase (ALS)-inhibiting herbicides penoxsulam (triazolopyrimidine chemical class) applied as Grasp SC, […] (sulfonylurea chemical class) applied as Sirius G, and bensulfuron-methyl (sulfonylurea chemical class) applied as Londax; acetyl CoA carboxylase (ACCase) inhibiting herbicides cyhalofop-butyl applied as Clincher G and fenoxaprop-p-ethyl applied as Ricestar HT; auxinic herbicide quinclorac applied as Facet 75 DF; phytoene desaturase inhibiting herbicide norflurazon; and p-hydroxyphenylpyruvate dioxygenase (HPPD) inhibiting herbicide sulcotrione applied as Mikado.
(§4) The treated plants and control plants were placed in a greenhouse as described above and water was added as needed to maintain a paddy flood. After 3 weeks the condition of the test plants as compared with that of the untreated plants was determined visually and scored on a scale of 0 to 100 percent where 0 corresponds to no injury and 100 corresponds to complete kill.

The test system of assay [3] is Fimbristylis miliacea (L.) VAHL (FIMMI). The assay is described as above. The following applies: 90 g/ha alone. How it is done:
as §1, §2, §3, §4

Assay [4] relates to Echinochloa species (ECHSS). Nature of the assay: Herbicidal mixtures for weed control in transplanted paddy rice (in-water application, visual % injury after 3 weeks). To be noted: ECHCG. Summed up:
(§5)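 Paddy flood, greenhouse ~29/26° C; weeds at 2nd–3rd true leaf stage. Herbicide stocks (acetone/2.5% crop oil concentrate) injected into water; solvent blank controls. Visual % injury, 0–100, at 3 weeks.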

Assay [5] deals with Sphenoclea zeylanica GAERTN. (SPDZE). Nature of the assay: Herbicidal mixtures for weed control in transplanted paddy rice (in-water application, visual % injury). To be noted: 90 g/ha alone. The method, boiled down: as §5
Assay [6] has as its system Leptochloa chinensis (L.) NEES (LEFCH). The assay is described as above. The following applies: 90 g/ha alone. The method, boiled down: as §5
Assay [7] has as its system Scirpus maritimus L. (SCPMA). The description is as above. The following applies: 90 g/ha alone. Summed up:
as §5

Assay [8] concerns Cyperus species (CYPSS). Described as above. The following applies: 90 g/ha alone. Summed up: as §5
In assay [9] the test system is Cyperus iria L. (CYPIR). Kind of assay: Postemergence herbicidal mixtures for weed control in direct seeded rice (greenhouse, visual % injury).
Assay [10] concerns Polygonum pensylvanicum L. (POLPY). The assay is described as above. The following applies: alone 100 g/ha.
Assay [11] relates to Ipomoea hederacea (L.) JACQ. (IPOHE). Kind of assay: Postemergence herbicidal mixtures for weed control in direct seeded rice (greenhouse, visual % injury after 3 weeks).

On to `CCCCOC(=O)[C@@H](C)Oc1ccc(Oc2ccc(C#N)cc2F)cc1` [Cyhalofop-butyl], for which the “% Injury CYPES Ob” value in assay [1] (alone 100 g/ha) and in assay [1] (alone 200 g/ha) was 0% each time. Further, the “% Injury Ob” value in [2] is 0%; in assay [3], 0%; in assay [4] (90 g/ha alone), 50%; in assay [4] (180 g/ha alone), 75% and 95%; in assay [5], 0%; in assay [6] it was 50%. The “% Injury Ob” value in assay [7], in assay [8] (CYPES) and in [8] (CYPIR) was 0% each time. Further, the “% Injury CYPIR Ob” value in assay [9] (alone 140 g/ha) and in [9] (alone 280 g/ha) was 0% each time. The “% Injury POLPY Ob” value in assay [10] is given as 0%. Besides, the “% Injury IPOHE Ob” value in [11] (alone 140 g/ha) and in assay [11] (alone 280 g/ha) was 0% throughout.
